Results from patent US20020034534A1, “System and method for delivering a therapeutic agent over an extended period of time in conjuction with a receptor loading dose of the therapeutic agent” (priority 1999, published 2002).

Assays:
opiate receptors = details: recommended dose of 50 mg taken orally; cited from earlier work
[1] = Naltrexone plasma pharmacokinetics from the literature and its reinterpretation; assay type: in vivo
Excerpt: Phase II (RLD)—Days two to thirty. […] The higher serum levels of this phase serve two purposes. First, for the particular therapeutic agent chosen, the long-term maintenance dose releases drug slowly at a constant (zero order) rate. […] It has the disadvantage, however, that the plasma level will slowly rise until it reaches a plateau, which is referred to as steady state. The time to reach steady state is a function of the drug's half-life, a measure of the time it takes for half of the drug to be eliminated from the body. It takes approximately six half-lives to reach steady state for any drug. […] During this time it is essential that an additional source of drug be administered as a receptor loading dose to continue to saturate the drug receptors. A second reason for this loading dose, particularly for drugs used to treat addictions, is to prevent cravings and other withdrawal symptoms.
A period of approximately 3.3 half-lives is necessary to achieve a 90% receptor occupancy level.
Phase II (months 1 to 2) provides higher levels than the minimum needed to prevent narcotic highs. […] For pharmacokinetic reasons, the higher levels are also needed until the steady state distribution levels are reached through the slower maintenance dose.

O=C1CC[C@@]2(O)[C@H]3Cc4ccc(O)c5c4[C@@]2(CCN3CC2CC2)[C@H]1O5 [naltrexone]
duration of complete blockage (opiate receptors): 24 h
time to reach 90% receptor occupancy level ([1]; calculated as 3.3×72 hr at the maintenance rate): about 10 days
time to reach 98% occupancy ([1]; maintenance rate): about 20 days
steady state level ([1]; subcutaneous product, zero order rate of 0.56 mg/day): about 7.5 ng/ml
